{"source": "patent US10092568B2", "about": "“CBP/Catenin antagonists for enhancing asymmetric division of somatic stem cells” (University of Southern California, priority 2010, dated 2018)", "key": {"[1]": {"system": "Wnt/catenin transcription (TOPFLASH) in SW480 colon carcinoma cells", "assay": "TOPFLASH TCF/catenin luciferase reporter in SW480 colon carcinoma cells", "format": "cell-based", "details": "Homo sapiens", "text": "ICG-001. Applicant's pharmacologic tools were identified using cell-based forward chemical genomic screens of small molecule secondary structure template chemical libraries (22)."}, "ER alpha receptor": {"system": "ER alpha receptor", "assay": "ER alpha re-expression in triple negative breast cancer", "format": "cell-based"}, "mice": {"system": "mice", "assay": "Topical treatment of mothers throughout pregnancy, offspring development", "format": "in vivo, mouse", "details": "mothers treated topically, 0.5M, conception to birth", "text": "Acute Promyelocytic Leukemia (APL) is unique among myeloid leukemias due to its sensitivity to all-trans retinoic acid (ATRA), a derivative of vitamin A. Treatment with ATRA dissociates the NCOR-HDACL complex from RAR and allows DNA transcription and differentiation of the immature leukemic promyelocytes into mature granulocytes by targeting the oncogenic transcription factor and its aberrant action. […] A large number of scientific studies have also investigated a possible role for vitamin D in cancer prevention, including colon, prostate, breast, pancreatic and skin cancer. […] However, there are also reports of synergistic effects on the activation of gene expression by ATRA and Wnt for example (47). […] This is the same region of these coactivator proteins (i.e., CBP and p300) that partners with catenin (both beta and gamma) and the CBP/catenin antagonists (e.g., ICG-001) also bind to this region. These nuclear receptor ligands have many of the same differentiating effects on stem cell populations that applicant has observed with specific CBP/catenin antagonists. Although, both Vitamin A and D are required during development and have many beneficial health effects in adulthood, both are teratogenic at high levels. […]"}, "[2]": {"system": "mitotic cells in the ventricular zone (VZ)", "assay": "Par3 localization assay of symmetric versus asymmetric divisions in the ventricular zone of embryonic brain", "format": "in vivo, mouse", "text": "Taking advantage of the ready uptake and penetration through the placental barrier of applicant's small molecule Wnt modulators, applicant designed a series of experiments to investigate symmetric versus asymmetric divisions in the ventricular zone (VZ) of the brain during mouse embryonic development. Timed pregnant mice were topically treated for various time periods (1-3 days) with DMSO (vehicle control), the CBP/catenin antagonist ICG-001 or the p300/catenin antagonist IQ-1. Using a previously described protocol (56), the localization of […] (Par3) and DNA was examined in mitotic cells in the VZ. Par3 distributes symmetrically in cells that divide symmetrically and asymmetrically in cells that divide asymmetrically, whereas the DNA distributes symmetrically between the 2 cells. Using fluorescence microscopy, the percentage of mitotic cells dividing symmetrically or asymmetrically could be quantified. […] Antagonizing the CBP/catenin interaction with ICG-001 had no apparent effect yielding similarly, approximately 21% asymmetric divisions. […] Importantly, this decrease in asymmetric divisions upon treatment with IQ-1 could be rescued back essentially to control levels (i.e. ˜21%) by treatment with a 2-fold excess of ICG-001. Even further divergence in symmetric versus asymmetric divisions could be seen upon prolonged treatments. For example, treatment with IQ-1 (i.e., antagonizing p300/catenin interaction leading to increased usage of CBP) for 3 days (E13.5-16.5) decreased asymmetric divisions compared to control from 31% to 7%. […] This reporter mouse expresses EGFP, driven by the Tis21 promoter, in cells that have undergone neurogenic differentiative divisions.\nFor example, Bultje et al. (Bultje R Neuron 63, 189-202, 2009) describe an assay to measure asymmetric distributions in the ventricular zone (vz) to evaluate asymmetric divisions during neurogenesis. Essentially this involves treating the animal (either adult or in utero) for a set period of time with compounds (either p.o., s.c., i.v. or topically) with compounds and then sacrificing the animal and examining the Par3 distribution (e.g., via immunohistochemistry) in mitotic cells vs. DNA distribution (e.g., using DAPI staining) Par3 distributes equally among the two daughter cells during symmetric division and unequally (essentially all in one daughter cell) during asymmetric differentiation."}, "[3]": {"system": "cerebral deposition of Aβ", "assay": "Aβ deposition in penta-transgenic mouse model of Alzheimer's disease", "format": "in vivo", "details": "50 mg/kg/day, 2 months", "experimental": "Applicant utilized a penta-transgenic mouse model of AD, which normally develops massive cerebral deposition of Aβ starting at 6 weeks of age. These mice were treated with either (A) ICG-001 (50 mg/kg/day) or (B) saline for 2 months. […] However, the effects of PS-1 mutations on the stability of beta-catenin, TCF/beta-catenin signaling, and thereby its potential role in AD remain controversial. […] In the CNS, EpB2 expression is associated with axonal guidance (16). […] In initial in vivo studies, applicant treated penta-transgenic mice that over express mutant APP (695) (Swedish (K670N, M671L), Florida (I716V) and London (V717I)) and PS-1 (M146L and L286V) mutations with ICG-001 for 2 months (months 2-4). These mice normally develop massive cerebral deposition of Aβ starting at 6 weeks of age."}, "[4]": {"system": "human skin (surgical waste)", "assay": "Ex vivo human skin assay, qRT-PCR", "format": "cell-based", "details": "24 hrs; 5 uM ICG-001, 5 uM methylated ICG-001, 1 ug/ml RA", "experimental": "Methods. Ex Vivo human skin assay culture conditions were based upon a paper by Varani J et al Experimental and Molecular Pathology, 2004.\nBriefly, human skin (surgical waste from plastic surgery procedures) was obtained and the subcutaneous layer of fat was trimmed manually with a scalpel. The skin was then cut into small fragments about 2 mm square and placed in 6 well plates. 1 ml of keratinocyte culture medium (Gibco 10724-011) with 1% P/S (penstrep antibiotic) was added to each well. The epidermis, bathed in media was placed facing up. On the next day (overnight culture in the media above), the skin fragments were transferred to fresh wells that contained either 5 uM ICG-001, 5-uM methylated ICG-001 or 1 ug/ml of retinoic acid (RA). After 24 hrs, skin samples in culture were removed for RNA isolation and qRT-PCR analysis of genes of interest (e.g., elastin (a gene involved in skin appearance and pliability (e.g., wrinkling)) and aquaporin 1, which is involved with hydration."}}}
{"smiles": "O=C1[C@H](Cc2ccc(O)cc2)N2C(=O)CCN(C(=O)NCc3ccccc3)[C@H]2CN1Cc1cccc2ccccc12", "note": "[ICG-001]", "values": [{"measurement": "IC50", "setting": "[1]", "result": 30, "unit": "µM"}, {"measurement": "expression of the ER alpha receptor", "setting": "ER alpha receptor", "result": "re-expression"}, {"measurement": "fertility of offspring", "setting": "mice", "result": "could breed a second generation"}, {"measurement": "weight and size of offspring at 6 weeks of age", "setting": "mice", "result": "normal weight and size"}, {"measurement": "asymmetric divisions in the VZ after IQ-1, rescued", "setting": "[2]; IQ-1 plus 2-fold excess of ICG-001", "result": "approximately 21%"}, {"measurement": "defect in asymmetric divisions caused by IQ-1", "setting": "[2]; excess ICG-001", "result": "corrects the defect"}, {"measurement": "number of asymmetric divisions compared to vehicle control", "setting": "[2]; topical or oral administration to pregnant mice", "result": "does not affect"}, {"measurement": "asymmetric divisions in the VZ", "setting": "[2]; topical, 1 day, E13.5 to 14.5, DMSO approximately 21%", "result": "approximately 21%"}, {"measurement": "Aβ staining in the parietal lobe", "setting": "[3]", "result": "significant (A) decrease"}, {"measurement": "amyloid plaque formation", "setting": "[3]; immunohistochemistry", "result": "significant decrease"}, {"measurement": "expression of aquaporin 1", "setting": "[4]", "result": "increase"}, {"measurement": "expression of elastin", "setting": "[4]", "result": "increase"}]}
